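Protocol summary: plate cells (96-well), add compound at 5 concentrations, incubate 48 h, interpolate endpoints linearly. Here, GI50 denotes the concentration required for 50% inhibition of growth. TGI: concentration producing complete growth inhibition.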
Experiments:
Experiment in all cases: growth of human tumour cells (NCI), 48 h
786-0 renal = system: 786-0 renal
SN12C renal = system: SN12C renal
ACHN renal = system: ACHN renal
OVCAR-3 ovarian = system: OVCAR-3 ovarian
HCT-15 colon = system: HCT-15 colon
MALME-3M melanoma = system: MALME-3M melanoma
SK-MEL-2 melanoma = system: SK-MEL-2 melanoma
A549 NSCLC = system: A549 NSCLC
BT-549 breast = system: BT-549 breast
NCI-H226 lung = system: NCI-H226 lung
SK-OV-3 ovarian = system: SK-OV-3 ovarian
CAKI-1 renal = system: CAKI-1 renal
MDA-MB-231 breast = system: MDA-MB-231 breast
SF-295 CNS = system: SF-295 CNS
UO-31 renal = system: UO-31 renal
KM12 colon = system: KM12 colon
HL-60(TB) leukemia = system: HL-60(TB) leukemia
SW-620 colon = system: SW-620 colon
NCI-H522 lung = system: NCI-H522 lung
NCI-H460 lung = system: NCI-H460 lung
SNB-75 CNS = system: SNB-75 CNS
OVCAR-5 ovarian = system: OVCAR-5 ovarian
SF-268 CNS = system: SF-268 CNS
TK-10 renal = system: TK-10 renal
MOLT-4 leukemia = system: MOLT-4 leukemia
CCRF-CEM leukemia = system: CCRF-CEM leukemia
HOP-62 NSCLC = system: HOP-62 NSCLC
NCI-H23 lung = system: NCI-H23 lung
IGROV1 ovarian = system: IGROV1 ovarian
HS 578T breast = system: HS 578T breast
DU-145 prostate = system: DU-145 prostate
SF-539 CNS = system: SF-539 CNS
NCI/ADR-RES ovarian = system: NCI/ADR-RES ovarian
RPMI-8226 leukemia = system: RPMI-8226 leukemia
T-47D breast = system: T-47D breast
HCT-116 colon = system: HCT-116 colon
M14 melanoma = system: M14 melanoma
UACC-62 melanoma = system: UACC-62 melanoma
SK-MEL-5 melanoma = system: SK-MEL-5 melanoma
EKVX NSCLC = system: EKVX NSCLC
UACC-257 melanoma = system: UACC-257 melanoma
HCC-2998 colon = system: HCC-2998 colon
A498 renal = system: A498 renal
OVCAR-8 ovarian = system: OVCAR-8 ovarian
MCF7 breast = system: MCF7 breast
LOX IMVI melanoma = system: LOX IMVI melanoma
U251 CNS = system: U251 CNS
K-562 leukemia = system: K-562 leukemia
HT29 colon = system: HT29 colon
SNB-19 CNS = system: SNB-19 CNS
PC-3 prostate = system: PC-3 prostate
MDA-MB-435 = system: MDA-MB-435
RXF 393 renal = system: RXF 393 renal
SK-MEL-28 melanoma = system: SK-MEL-28 melanoma
COLO 205 colon = system: COLO 205 colon
OVCAR-4 ovarian = system: OVCAR-4 ovarian
HOP-92 NSCLC = system: HOP-92 NSCLC

## NS(=O)(=O)N(c1cc(C(F)(F)F)cc(C(F)(F)F)c1)C1CCN(Cc2ccc(C(F)(F)F)cc2)CC1
786-0 renal
  GI50: 7.47 µM
  TGI: 14.1 µM
SN12C renal
  GI50: 6.86 µM
  TGI: 13.7 µM
ACHN renal
  GI50: 7.92 µM
  TGI: 14.6 µM
OVCAR-3 ovarian
  GI50: 6.23 µM
  TGI: 12.6 µM
HCT-15 colon
  GI50: 5.88 µM
  TGI: 12.5 µM
MALME-3M melanoma
  GI50: 7.47 µM
  TGI: 14.2 µM
SK-MEL-2 melanoma
  GI50: 9.91 µM
  TGI: 18.3 µM
A549 NSCLC
  GI50: 7.35 µM
  TGI: 15.6 µM
BT-549 breast
  GI50: 7.99 µM
  TGI: 14.7 µM
NCI-H226 lung
  GI50: 7.9 µM
  TGI: 15.5 µM
SK-OV-3 ovarian
  GI50: 9.26 µM
  TGI: 22.2 µM
CAKI-1 renal
  GI50: 5.04 µM
  TGI: 11.1 µM
MDA-MB-231 breast
  GI50: 9.65 µM
  TGI: 20.8 µM
SF-295 CNS
  GI50: 6.82 µM
  TGI: 13.5 µM
UO-31 renal
  GI50: 3.17 µM
  TGI: 9.87 µM
KM12 colon
  GI50: 6.81 µM
  TGI: 14.9 µM
HL-60(TB) leukemia
  GI50: 1.63 µM
  TGI: 7.84 µM
SW-620 colon
  GI50: 6.77 µM
  TGI: 15.4 µM
NCI-H522 lung
  GI50: 6.42 µM
  TGI: 13.2 µM
NCI-H460 lung
  GI50: 7.49 µM
  TGI: 16.4 µM
SNB-75 CNS
  GI50: 2.86 µM
  TGI: 13 µM
OVCAR-5 ovarian
  GI50: 7.88 µM
  TGI: 16 µM
SF-268 CNS
  GI50: 7.55 µM
  TGI: 17.9 µM
TK-10 renal
  GI50: 7.03 µM
  TGI: 14.5 µM
MOLT-4 leukemia
  GI50: 3.77 µM
  TGI: 15.9 µM
CCRF-CEM leukemia
  GI50: 8.98 µM
  TGI: 24.2 µM
HOP-62 NSCLC
  GI50: 7.94 µM
  TGI: 15 µM
NCI-H23 lung
  GI50: 6.88 µM
  TGI: 14 µM
IGROV1 ovarian
  GI50: 5.56 µM
  TGI: 11.6 µM
HS 578T breast
  GI50: 6.34 µM
  TGI: 22.9 µM
DU-145 prostate
  GI50: 7.87 µM
  TGI: 15.4 µM
SF-539 CNS
  GI50: 7.8 µM
  TGI: 15.3 µM
NCI/ADR-RES ovarian
  GI50: 6.82 µM
  TGI: 13.3 µM
RPMI-8226 leukemia
  GI50: 6.88 µM
  TGI: 20.3 µM
T-47D breast
  GI50: 5.61 µM
  TGI: 11.9 µM
HCT-116 colon
  GI50: 5.41 µM
  TGI: 11.4 µM
M14 melanoma
  GI50: 7.57 µM
  TGI: 14.5 µM
UACC-62 melanoma
  GI50: 7.14 µM
  TGI: 16.3 µM
SK-MEL-5 melanoma
  GI50: 7.63 µM
  TGI: 14.7 µM
EKVX NSCLC
  GI50: 7.18 µM
  TGI: 15.2 µM
UACC-257 melanoma
  GI50: 7.54 µM
  TGI: 15 µM
HCC-2998 colon
  GI50: 6.9 µM
  TGI: 13.4 µM
A498 renal
  GI50: 5.61 µM
  TGI: 12 µM
OVCAR-8 ovarian
  GI50: 8.35 µM
  TGI: 17.4 µM
MCF7 breast
  GI50: 6.09 µM
  TGI: 12.3 µM
LOX IMVI melanoma
  GI50: 7.43 µM
  TGI: 14 µM
U251 CNS
  GI50: 5.92 µM
  TGI: 12.7 µM
K-562 leukemia
  GI50: 0.409 µM
  TGI: 10.3 µM
HT29 colon
  GI50: 2.89 µM
  TGI: 10.2 µM
SNB-19 CNS
  GI50: 9.39 µM
  TGI: 20.2 µM
PC-3 prostate
  GI50: 4.56 µM
  TGI: 12.5 µM
MDA-MB-435
  GI50: 7.04 µM
  TGI: 13.6 µM
RXF 393 renal
  GI50: 5.89 µM
  TGI: 12.2 µM
SK-MEL-28 melanoma
  GI50: 8.5 µM
  TGI: 17.7 µM
COLO 205 colon
  GI50: 7.86 µM
  TGI: 14.6 µM
OVCAR-4 ovarian
  GI50: 6.89 µM
  TGI: 14.5 µM

## CS(=O)(=O)Nc1ccc(Nc2cc[nH]c3ccc4nccc4c23)cc1
786-0 renal
  TGI: 38.4 µM
SN12C renal
  TGI: 32.3 µM
ACHN renal
  TGI: 65.3 µM
OVCAR-3 ovarian
  TGI: 32.5 µM
HCT-15 colon
  TGI: > 100 µM
MALME-3M melanoma
  TGI: 18.4 µM
SK-MEL-2 melanoma
  TGI: 23.9 µM
A549 NSCLC
  TGI: 38.8 µM
BT-549 breast
  TGI: 40 µM
NCI-H226 lung
  TGI: 24.5 µM
SK-OV-3 ovarian
  TGI: > 100 µM
CAKI-1 renal
  TGI: 68.4 µM
MDA-MB-231 breast
  TGI: 21.6 µM
SF-295 CNS
  TGI: 62.2 µM
UO-31 renal
  TGI: > 81.2 µM
KM12 colon
  TGI: 28.1 µM
HL-60(TB) leukemia
  TGI: 42 µM
SW-620 colon
  TGI: 49.8 µM
NCI-H522 lung
  TGI: 24.3 µM
NCI-H460 lung
  TGI: 31.8 µM
OVCAR-5 ovarian
  TGI: 61.1 µM
HOP-92 NSCLC
  TGI: 46.3 µM
SF-268 CNS
  TGI: 18.9 µM
TK-10 renal
  TGI: 82.1 µM
MOLT-4 leukemia
  TGI: 7.78 µM
CCRF-CEM leukemia
  TGI: > 67.8 µM
HOP-62 NSCLC
  TGI: 37.3 µM
NCI-H23 lung
  TGI: 38.5 µM
IGROV1 ovarian
  TGI: 58.5 µM
HS 578T breast
  TGI: > 60.8 µM
DU-145 prostate
  TGI: 22.2 µM
NCI/ADR-RES ovarian
  TGI: > 100 µM
RPMI-8226 leukemia
  TGI: 44.6 µM
T-47D breast
  TGI: 22.6 µM
HCT-116 colon
  TGI: > 43.1 µM
M14 melanoma
  TGI: 30.4 µM
UACC-62 melanoma
  TGI: 28.1 µM
SK-MEL-5 melanoma
  TGI: 24.7 µM
EKVX NSCLC
  TGI: 58.7 µM
UACC-257 melanoma
  TGI: 31.5 µM
HCC-2998 colon
  TGI: 16.3 µM
A498 renal
  TGI: 34.2 µM
OVCAR-8 ovarian
  TGI: > 65.1 µM
MCF7 breast
  TGI: 20.7 µM
LOX IMVI melanoma
  TGI: 34.2 µM
U251 CNS
  TGI: 22 µM
K-562 leukemia
  TGI: 32 µM
HT29 colon
  TGI: 48.4 µM
SNB-19 CNS
  TGI: 26.3 µM
PC-3 prostate
  TGI: 30.3 µM
MDA-MB-435
  TGI: 29.5 µM
RXF 393 renal
  TGI: 30.2 µM
SK-MEL-28 melanoma
  TGI: 32.2 µM
COLO 205 colon
  TGI: 44.2 µM
OVCAR-4 ovarian
  TGI: 26.2 µM
